Here are results for 2 molecules from US20100291564A1, “Methods for Detection of Micro-Organisms” (MICROSEN MEDTECH LIMITED, priority 2007, published 2010).

Assay [1] deals with Staph. aureus. As to the kind of experiment: Sensitivity of Staph. aureus cells to antibiotic, NAD-dependent ligase detection (LiMA-2, Taq-Man real time PCR). It counts as cell-based, Staphylococcus aureus. The note with it: 10^4 cells added to culture medium, after 4 hours in the presence of antibiotic. The procedure:
FIG. 5. Sensitivity of Staph. aureus cells to antibiotic. […]
Take 1 ml fresh Staph. aureus culture (10^6 cells/μl), spin 8000 rpm 5 min, resuspend pellet in 1 ml deionised water Dilute in a series of 10 fold dilutions down to 10^2 cells/μl
After ligation step above add 2 μl of following nuclease mix to each tube:
Add 2 μl to PCR mastermix, cycles were:
The detection limit in this experiment was estimated to be between 10 and 100 cells.
(Real-time PCR tracks product formation cycle by cycle.)

Assay [2] concerns E. coli. As to the kind of experiment: Drug susceptibility testing by NAD-dependent ligase mediated PCR assay. The note with it: for Cycle at which PCR was positive: plus gentamicin 50 μg/ml. Type of assay: cell-based, Escherichia coli. An excerpt:
The PCR signal generated is related to the number of ligated molecules of the DNA substrate which in turn is related to the number of ligase molecules present. In turn, the number of molecules of ligase present is dependent on the viability of the bacterium. Upon culture of a given bacterium, if the bacteria are healthy, growing and increasing in number there will be progressively more ligase present which will generate more ligation and more PCR signal. If the bacteria are unhealthy and non-viable or dying there will be no increase in ligase on culture and the number of ligase molecules might even be expected to decrease which will be reflected in the amount of ligation and PCR signal generated. In this example we have tested the susceptibility of the organism to an antibiotic. By culturing in the presence and absence of antibiotic we can compare the signal generated from the bacterial ligase at different time points. Additionally, the experiment can be performed with and without the addition of the NAD+ cofactor. In the presence of added cofactor the ligase can cycle through many ligation steps. In the absence of added cofactor the ligase must depend on endogenous bacterial NAD+ for ligation. These two conditions, therefore are two different measures of the health of the bacterial cell
1. 10 ml of media (LB broth) containing 50 μg/ml gentamicin was inoculated with […] E. coli bacteria/ml and incubated for 3 hours. At 30 min time points 1 ml of the culture was removed and placed on ice until completion of the time course.
2. The bacteria were then pelleted by centrifugation at 6,000×g for 5 min and the supernatant removed.
3. The protocol from this stage was identical to steps 3 to 8 in example 1 except that the ligase reaction was performed with and without added NAD+.

Turning to `Cc1onc(-c2ccccc2)c1C(=O)N[C@@H]1C(=O)N2[C@@H]1SC(C)(C)[C@@H]2C(=O)O` [oxacillin], the “fall of NAD-dependent ligase content” value in assay [1] is given as > 2×10^3 fold.

Turning to gentamicin, the “Cycle at which PCR was positive” value in assay [2] (With added NAD+, time 0 min) is on record as 26.2; in assay [2] (With added NAD+, time 30 min), 25.1; in assay [2] (With added NAD+, time 60 min), 25.7; in assay [2] (With added NAD+, time 90 min), 26.2; in assay [2] (With added NAD+, time 120 min) it was 27.2; in assay [2] (With added NAD+, time 150 min), 26.8. For the same molecule, the “Cycle at which PCR was positive” value in assay [2] (With added NAD+, time 180 min) worked out at 26.3; in assay [2] (Without added NAD+, time 0 min) it was 29.5; in assay [2] (Without added NAD+, time 30 min), 29.4; in assay [2] (Without added NAD+, time 60 min) it was 31.6; in assay [2] (Without added NAD+, time 90 min), 30.1; in assay [2] (Without added NAD+, time 120 min), 30.3. Further, the “Cycle at which PCR was positive” value in assay [2] (Without added NAD+, time 150 min) was determined as 29.4; in assay [2] (Without added NAD+, time 180 min), 30.1. Moreover, the “signal from the bacterial ligase” value in assay [2] (in the presence of gentamicin 50 μg/ml, incubation up to 3 hours) was “does not increase with incubation”.
